Earlier results in patent US20210213093A1, “COMPOSITIONS AND METHODS FOR ACTIVATING CELLULAR SIGNALING PATHWAYS” (LifeVantage Corporation, priority 2020, published 2021).

Settings: background statement, no test described

O=C(O)CCCC[C@@H]1CCSS1 (racemic) [Lipoic acid, lipoic acid]
antioxidant power relative to vitamin E and vitamin C combined: 400 times
